In patent US20100204149A1, “USE OF OCTREOTIDE AS A THERAPEUTIC AGENT” (priority 2007, published 2010):

Legend:
[1] = tested on: Human A549 cells; experiment: Apoptosis induction assay (Annexin-5); type: cell-based; settings: peptide 10 micrograms per ml, 24 hours
Excerpt: Human A549 cells (carcinomic human alveolar basal epithelial cells) were utilized in the experiments employing the Annexin-5 apoptosis assay. Annexin-5 is a member of a highly conserved protein family that binds acidic phospholipids in a calcium-dependent manner. […] Phosphatidylserine is translocated from the inner side of the plasma membrane to the outer layer when cells undergo death by apoptosis or cell necrosis and serves as a signal by which cell destined for death are recognized by phagocytes. Test peptide—10 micrograms per ml—were exposed for 24 hours to the A549 cells before they were analyzed for signs of apoptosis.

[2] = tested on: HIV-1IIIB; experiment: HIV-1 antiviral assay (CPE reduction) in CEM-SS cells; settings: peptide 10 micrograms per ml; 6 days post-infection; MTS
[3] = tested on: Human A549 cells; experiment: Apoptosis prevention assay (C2 ceramide, Annexin-5); type: cell-based; settings: pretreated 30 min with peptide 10 micrograms per ml
Excerpt: Human A549 cells (carcinomic human alveolar basal epithelial cells) were utilized in the experiments employing the Annexin-5 apoptosis assay. Annexin-5 is a member of a highly conserved protein family that binds acidic phospholipids in a calcium-dependent manner. […] Phosphatidylserine is translocated from the inner side of the plasma membrane to the outer layer when cells undergo death by apoptosis or cell necrosis and serves as a signal by which cell destined for death are recognized by phagocytes. A549 cells were pretreated for 30 min with test peptide -10 micrograms per ml—followed by the exposure to C2 ceramide. Ceramide mediates cell apoptosis through the activation of the mitogen activating protein kinase (MAPK) and the stress activated kinase (JNK/SAPK). C2 ceramide is a synthetic, membrane soluble analog of ceramide.

[4] = tested on: Human Peripheral Blood Mononuclear Cells (PBMC); settings: T cell proliferation; peptide 10 micrograms per ml; 3 days
Protocol: Human Peripheral Blood Mononuclear Cells (PBMC) were obtained from normal human donors. The T cell proliferation was induced by stimulation of the cells with the T cell mitogen phytohemagglutinin (PHA), either in the absence (positive proliferation control), or in the presence of test peptide—10 micrograms per ml—to examine their effects on the T cell proliferating response. 10^5/well PBMC were plated in 96-well microtiter plates and assayed in duplicate with the peptide. Cell cultures were incubated at 37° C. for 3 days in a 5% CO2 incubator and were thereafter pulsed with 1 microCi/well ^3H-thymidine for additional 12 hours of culture. At the end of incubation time, the plates were harvested and the cells counted by liquid scintillation for the incorporation of ^3H-thymidine as a measure of T cell proliferation.

[5] = Cytotoxicity (MTS cell viability) in HIV-1 assay; settings: human, CEM-SS cells
[6] = tested on: Streptococcus pneumoniae; experiment: Streptococcus pneumoniae assay; type: cell-based; settings: peptide 10 micrograms per ml, read visually
Protocol: (§1) The antibacterial assay was conducted using clear, U-bottom 96-well microtiter plates. Cation-adjusted Mueller-Hinton Broth (MHB) was used for testing Streptococcus pneumoniae. The peptide of the invention (0.1 ml of each—10 micrograms per ml—) was dispensed into wells in duplicate. Then the wells were inoculated with 5×10^5 CFU/mL Streptococcus pneumoniae in 0.1 ml volume. For control purposes, each plate included 4 wells containing media without bacterial inoculum and 4 wells containing medium with inoculum but without peptide. The plates were incubated for 12 h at 37° C., and read visually 18-24 hours post-incubation. Growth control of Streptococcus pneumoniae was examined first to determine adequacy of media preparations and growth conditions. Acceptable growth is defined as ≧2 mm wide button of cells at the bottom of each sample well, or obvious turbidity in the culture supernatant. Test wells were examined and scored as positive/negative for activity. A positive score for activity is based on complete inhibition of macroscopic growth of the test Streptococcus pneumoniae.

[7] = tested on: Primary Human endothelial cells (HUVEC); experiment: Endothelial cell migration assay; type: cell-based; settings: peptide 10 micrograms per ml, 22 hours
Protocol: Endothelial cell migration is a prerequisite for the process of neo-vascularization or angiogenesis which is crucial for on-site recruitment of blood vessel formation. Primary Human endothelial cells (HUVEC) were seeded in insert chambers with 3 micrometer pore size of multi-transwell plate for 6 hours at 37° C. in Endothelial Cell Basal Medium (EBM) supplemented with 0.1% bovine serum albumin. Thereafter, designated concentration of test peptide—10 micrograms per ml—was added in duplicate wells. The endothelia were allowed to migrate for 22 hours at 37° C., then, migrated cells were fixed and stained with Hoechst 33342 dye. Images of 3 fields per insert were taken and the number of migrated cells per field were quantified using the ImageProPlus software. Data were analyzed for the average number of the migrated cells and standard deviation of six data points for each treatment condition. Active test peptide against HUVEC migration was determined based on 50% inhibition of migrated cells as compared with the control. Statistic p values were computed using the Student's t-test.

[8] = tested on: spleen cells of Ovalbumin immunized Balb/c mice; experiment: Th1/Th2 cytokine profiling assay; type: cell-based, mouse; settings: peptide 10 micrograms per ml; Ovalbumin restimulation; 72 hours
Excerpt: The Balb/c mice (originated in 1923, it is a popular strain and is used in many different research disciplines. Also classified as an inbred from the production of 20 or more successive brother-sister matings, the Balb/c mouse is albino and small in size) were immunized on Days 1, 15, and 29 with Ovalbumin (Ovalbumin is the main protein found in egg white, commonly used to stimulate an immunological reaction in test animals) in PBS (5 micrograms/injection). On day 50, spleens of the mice were harvested (3 weeks after last boost with Ovalbumin). Cells were cultured (2×10^5/well in triplicate) and incubated with culture medium or test peptide—10 micrograms per ml—for 30 min. Thereafter, additional Ovalbumin was added to the cells at 10 micrograms/ml for in vitro restimulation of the cells. 72 hours later, cell supernatants were harvested and assayed using the Becton Dickinson Mouse Th1/Th2 Cytokine CBA Kit. This kit can be used to measure Interleukin-2 (IL-2), Interleukin-4 (IL-4), Interleukin-5 (IL-5), Interferon-γ (IFN-γ), and Tumor Necrosis Factor-α (TNF-α) protein levels in a single sample. The kit performance has been optimized for analysis of physiologically relevant concentrations ([…] levels) of specific cytokine proteins in tissue culture supernatants and serum samples.

[9] = tested on: Pseudomonas aeruginosa; experiment: Pseudomonas aeruginosa assay; type: cell-based; settings: peptide 10 micrograms per ml, read visually
Protocol: as §1, with “Pseudomonas aeruginosa.” for “Streptococcus pneumoniae.”, “Pseudomonas aeruginosa” for “Streptococcus pneumoniae”

[10] = Cell viability (dye uptake) in HBV assay; type: cell-based; settings: human, HepG2-2.2.15, peptide 10 micrograms per ml

## C[C@@H](O)[C@@H]1NC(=O)[C@H](CCCCN)NC(=O)[C@@H](Cc2c[nH]c3ccccc23)NC(=O)[C@H](Cc2ccccc2)NC(=O)[C@@H](NC(=O)[C@H](N)Cc2ccccc2)CSSC[C@@H](C(=O)N[C@H](CO)[C@@H](C)O)NC1=O [Octreotide, H-D-Phe-Cys-Phe-D-Trp-Lys-Thr-Cys-L-threoninol]
[1]
  % of induction: 2.6%
[2]
  % CPE reduction in HIV-1 infected CEM-SS cells: 0.0%
[3]
  % prevention of ceramide induced apoptosis: 0.0%
[4]
  % of PHA induced control: 100.0%
[5]
  viability at 10 micrograms per ml: 100%
[6]
  % inhibition: 100.0%
[7]
  % inhibition of migration: −24%
[8]
  IFNγ spleen cells; TH1 response (% of control): 56.0 % of control
  IL-2 spleen cells (% of control): 159.5 % of control
  IL-4 spleen cells; TH2 response (% of control): 114.4 % of control
  IL-5 spleen cells; TH2 response (% of control): 96.1 % of control
  TNF-a spleen cells; TH1 response (% of control): 113.0 % of control
[9]
  % inhibition: 0.0%
[10]
  viability at 144 h, 10 micrograms per ml: 97.8%
